Our source for the activity coefficient values is the NIST ThermoML archive (doi:10.1016/j.jct.2012.01.016).

A short description of this data set: activity coefficient (dimensionless); of the first substance listed, at infinite dilution; xn = mol fraction of the nth substance listed. To be noted: Liquid, Headspace solid phase microextraction, x1 = 0.

Several values for one entry are separate records, joined by “and”; a condition that tells them apart may be missing. Identical values can stand only once.

For `C1CCCCC1` [cyclohexane] + O=Cc1ccco1, the activity coefficient by setting is: (298.15 K) 15.7 and 15.5; (308.15 K) 13.5 and 12.9; (318.15 K) 12 and 10.9.

In the case of `CCCCC` [pentane] + O=Cc1ccco1, the activity coefficient by setting is: (298.15 K) 20.8 and 20.4; (308.15 K) 17.9 and 16.9; (318.15 K) 16.8 and 15.

In the case of `C1CCCC1` [cyclopentane] + O=Cc1ccco1, the activity coefficient (298.15 K) was 11.6 and 11.4; the activity coefficient (308.15 K) was 10.7 and 10.1; the activity coefficient (318.15 K) was 10.4 and 9.3.

In the case of `CCc1ccccc1` [ethylbenzene] + O=Cc1ccco1, the activity coefficient runs as follows: (298.15 K) 4.84 and 4.52; (308.15 K) 5.02 and 4.35; (318.15 K) 7.21 and 5.25.

Take `c1ccccc1` [benzene] + O=Cc1ccco1: the activity coefficient is 2.61 and 2.45 (298.15 K); 2.93 and 2.4 (308.15 K); 3.87 and 2.89 (318.15 K).

As to `Cc1ccccc1C` [1,2-dimethylbenzene] + O=Cc1ccco1, the activity coefficient is, setting by setting: (298.15 K) 4.12 and 3.74; (308.15 K) 4.44 and 3.55; (318.15 K) 6.77 and 4.61.

Take `CCCCCC` [hexane] + O=Cc1ccco1: the activity coefficient (298.15 K) was 25.6 and 25.3; the activity coefficient (308.15 K) was 23.6 and 22.8; the activity coefficient (318.15 K) is 22.2 and 21.2.

For the molecule `Cc1ccccc1` [toluene] + O=Cc1ccco1, the activity coefficient (298.15 K) is 3.72 and 3.46; the activity coefficient (308.15 K) was 3.79 and 3.33; the activity coefficient (318.15 K) was 5.3 and 3.8.

For `CCCCCCC` [heptane] + O=Cc1ccco1, the activity coefficient by setting is: (298.15 K) 32 and 31.6; (308.15 K) 30.8 and 29.6; (318.15 K) 28.3 and 26.4.
